Assay results from article PMC12841663, “Antiprotozoal Potential of Cultivated Geranium macrorrhizum Against Giardia duodenalis, Trichomonas gallinae and Leishmania infantum” (International Journal of Molecular Sciences, 2026).
In brackets after ≈: the same amount, converted by molar mass.

How the values were obtained:
[1] = tested on: G. duodenalis trophozoites; assay: Anti-Giardia activity assay (MTT viability); format: cell-based; details: pure compounds
Procedure: Anti-Giardia (AG) activity assays were conducted on G. duodenalis trophozoites from the ATCC® 30957 strain (assemblage A), using flat-bottom microwell plates in quadruplicate. […] Incubation was carried out for 24 h at 37 °C. EOs and pure compounds were solved in DMSO (Sigma, Madrid, Spain) (<1% final concentration). […] Trophozoites/promastigotes viability was assessed using the modified MTT colorimetric assay, as described previously in the literature, with results further validated by microscopic examination. The plate was analyzed in a spectrophotometer at a wavelength of 570 nm. The percentage of antiparasitic activity was calculated as growth inhibition, using the following formula: % AT = 100 - [(Ap - Ab) ÷ (Ac - Ab)] × 100, where Ap is the absorbance of the tested product, Ab the absorbance of the blank and Ac the absorbance of the control wells (culture without treatment). […] Metronidazole (Acros Organics, Madrid, Spain) served as a reference compound for anti-Giardia activity and Anti-Trichomonas activity and amphotericin B for anti-Leishmania activity. Data was analyzed using STATGRAPHICS Centurion XIX ([…].com) (Statgraphics Technologies, Inc., The Plains, VA, USA). The mammalian cells and trophozoites viability were tested with each compound in a dose-response experiment to calculate their relative potency (CC50 or IC50 value, respectively).

T. gallinae trophozoites = assay: Anti-Trichomonas activity assay (MTT viability); format: cell-based; details: pure compounds
Procedure: The anti-Trichomonas (AT) activity assay utilized T. gallinae trophozoites from an isolate obtained from a wood pigeon by Dr. […] EOs and pure compounds were solved in DMSO (Sigma, Madrid, Spain) (<1% final concentration). […] Trophozoites/promastigotes viability was assessed using the modified MTT colorimetric assay, as described previously in the literature, with results further validated by microscopic examination. The plate was analyzed in a spectrophotometer at a wavelength of 570 nm. The percentage of antiparasitic activity was calculated as growth inhibition, using the following formula: % AT = 100 - [(Ap - Ab) ÷ (Ac - Ab)] × 100, where Ap is the absorbance of the tested product, Ab the absorbance of the blank and Ac the absorbance of the control wells (culture without treatment). […] Metronidazole (Acros Organics, Madrid, Spain) served as a reference compound for anti-Giardia activity and Anti-Trichomonas activity and amphotericin B for anti-Leishmania activity. Data was analyzed using STATGRAPHICS Centurion XIX ([…].com) (Statgraphics Technologies, Inc., The Plains, VA, USA). The mammalian cells and trophozoites viability were tested with each compound in a dose-response experiment to calculate their relative potency (CC50 or IC50 value, respectively).

[2] = tested on: L. infantum promastigotes; assay: Morphological evaluation by light microscopy (Diff-Quik), L. infantum; format: cell-based, Leishmania infantum; details: germacrone 100 µg/mL
Procedure: L. infantum, T. gallinae and G. duodenalis were studied at 0, and 48 h after treatment with germacrone (100 µg/mL), and controls (DMSO 1%, metronidazole at 10 µg/mL for T. gallinae and G. duodenalis and amphotericin B at 1 µg/mL for L. infantum).
For L. infantum and T. gallinae, cultures in the exponential growth phase (10^7 promastigotes/mL and 5 × 10^5 trophozoites/mL, respectively) were treated in 96-well microplates. At each time point, quadruplicates were assigned per condition: growth control, germacrone, and the corresponding positive control (metronidazole or amphotericin B). For microscopy, quadruplicate wells corresponding to the same condition/time point were pooled prior to centrifugation to obtain sufficient biomass and a representative pellet for smear preparation. Pooled samples per condition/time point were centrifuged, resuspended in FBS and spread onto microscope slides. Once dried, samples were fixed and stained with Diff-Quik (Medion Diagnostic AG, Düdingen, Switzerland) following the manufacturer’s instructions. Additionally, three wells per condition (triplicates) were used for the MTT assay, with absorbance measured by spectrophotometry after 48 h.
Morphological changes were analyzed using light microscopy. Experiments were performed as independent biological replicates on different plates, and one Diff-Quik stained smear was obtained per condition and time point per biological replicate. For morphometric analysis, a total of 30 trophozoites per condition and time point were measured across the independent biological replicates and were selected by consecutive sampling during a predefined serpentine (zig-zag) scan across the preparation. Up to two eligible trophozoites per field (intact, well-focused and non-overlapping) were measured in sequential fields until n = 30 was reached, avoiding subjective selection of “representative” cells. Overlapping, partially visible, out-of-focus, edge-of-field, or debris-obscured trophozoites were excluded a priori. Trophozoites were photographed using a researcher’s mobile phone mounted to the microscope ocular. Calibration was performed at the same magnification using a stage micrometre and applied in ImageJ v. 1.54d. One Diff-Quik stained smear was obtained per condition/time point per biological replicate Cell length, cell width, cell surface, nuclear length, nuclear width, axoneme (only Giardia), and length of axostyle (only T. gallinae) were measured with ImageJ software, and the data were recorded in an Excel database for statistical analysis.
The Shapiro–Wilk test was used to assess the normality of the morphological variables. When data followed a normal distribution, Student’s t-test was applied; otherwise, non-parametric tests, such as the Mann–Whitney U test, was used. Values of p < 0.05 were considered significant. For the morphological analysis, the mean, standard deviation, median, and interquartile range were calculated using SPSS version 20 (IBM Corp., Armonk, NY, USA).

CC(C)=C1C/C=C(\C)CC/C=C(\C)CC1=O [Compound 2, germacrone]
IC50 [1]: 55.2 µg/mL (≈ 253 µM) | IC50 (T. gallinae trophozoites): 45.8 µg/mL (≈ 210 µM) | cell length vs control ([2]; 0.5 and 48 h, control DMSO 1%): initial increase at 0.5 h but subsequently decreased at 48 h | cell surface area vs control ([2]; 0.5 and 48 h, control DMSO 1%): transiently increased at 0.5 h with no significant changes detected at 48 h | cell width vs control ([2]; 0.5 and 48 h, control DMSO 1%): increased significantly at both 0.5 and 48 h | morphological changes (light microscopy) ([2]; 48 h of exposure, Diff-Quik): less pronounced
